What follows are compounds tested against T1, CDK2/Cyclin E complex (Homo sapiens, UniProt P24941) (assay: CDK2/Cyclin E fluorescence-based microfluidic mobility shift assay (CDK2 Biochemical Caliper Assay)). Details: read-out: Biochemical CDK2/CyclinE Caliper IC50.
T1 construct: purchased Eurofins 14-475
Method: Compounds of the present disclosure were tested in a CDK2/Cyclin E fluorescence-based microfluidic mobility shift assay (PerkinElmer).
The active wild type CDK2/Cyclin E complex was purchased from Eurofins (14-475). Compound stocks were prepared in DMSO and were serially diluted into 11 concentrations by 3-fold dilution. […] Compounds were incubated in the presence of CDK2/Cyclin E complex and ATP for 30 minutes at room temperature. Catalytic reaction was initiated with the addition of 5 uL of a 4× peptide solution containing 6 uM fluorescently label substrate peptide, FL Peptide 18 (aa sequence 5-FAM-QSPKKG, PerkinElmer, 760362) in 1× reaction buffer.
The final reaction components were 0.1 nM CDK2/Cyclin E, 2000 uM ATP and 1.5 uM FL Peptide 18 and 1% DMSO. Reactions were incubated RT for 20 hr and terminated with 75 uL of a stopping solution containing 0.5 M EDTA. Samples were analyzed using a LabChip EZ reader (PerkinElmer).

SMILES	IC50 [µM]
Cc1cc(CC(=O)Nc2cc([C@H]3CC[C@@H](NC(N)=O)C3)[nH]n2)on1 (racemic) [Example 10]	0.25 to 1
Cc1cc(CC(=O)Nc2cc([C@H]3C[C@@H]4CC[C@H]3C4)[nH]n2)on1 (racemic) [Example 49]	1 to 100
Cc1cc(CC(=O)Nc2cc(N3CC[C@@H](COC(=O)NC4(C)CC4)C3)[nH]n2)on1 (racemic) [Example 53]	1 to 100
CC(C)NC(=O)O[C@@H]1CC[C@H](c2cc(Nc3nc4cccnc4o3)n[nH]2)C1 (racemic) [Example 140]	≤ 0.1
COCc1cc(C(=O)Nc2cc([C@H]3CC[C@H](c4ccc(C)[nH]c4=O)C3)[nH]n2)n(C)n1 (racemic) [Example 517]	1 to 100
COCc1cc(C(=O)Nc2cc([C@H]3CC[C@@H](c4ccc(C)[nH]c4=O)C3)[nH]n2)n(C)n1 (racemic) [Example 518]	0.25 to 1
COCc1cc(C(=O)Nc2cc([C@@H]3CC[C@@H](c4ccc(C(C)C)cn4)C3)[nH]n2)n(C)n1 (racemic) [Example 571]	1 to 100
C[C@H]1CC[C@H](C)N1C(=O)OC[C@H]1C[C@@H](c2cc(Nc3ccc4c(n3)C(C)(C)NC4=O)n[nH]2)C1 (racemic) [Example 593]	≤ 0.1
Cc1cc(CC(=O)Nc2cc([C@H]3CCC[C@H](OC(=O)NC4(C)CC4)CC3)[nH]n2)on1 (single isomer, unassigned) [Example 26]	1 to 100
Cc1cc(CC(=O)Nc2cc([C@@H]3C[C@H](OC(=O)NC4(C)CC4)CO3)[nH]n2)on1 (single isomer, unassigned) [Example 69]	≤ 0.1
CC(C)NC(=O)N[C@@H]1CC[C@H](c2cc(Nc3ncccn3)n[nH]2)C1 (single isomer, unassigned) [Example 86]	1 to 100
Cc1cc(CC(=O)Nc2cc([C@H]3CC[C@@H](N4CC5(CC5)NC4=O)C3)[nH]n2)on1 (single isomer, unassigned) [Example 90]	0.25 to 1
Cc1cc(CC(=O)Nc2cc([C@H]3CC[C@@H](n4cc(C)[nH]c4=O)C3)[nH]n2)on1 (single isomer, unassigned) [Example 92]	0.25 to 1
Cc1cc(CC(=O)Nc2cc([C@H]3CC[C@@H](n4cc(C(C)C)[nH]c4=O)C3)[nH]n2)on1 (single isomer, unassigned) [Example 93]	1 to 100
Cc1cc(CC(=O)Nc2cc([C@H]3CC[C@@H](Oc4nnccc4C(C)C)C3)[nH]n2)on1 (single isomer, unassigned) [Example 97]	≤ 0.1
Cc1cc(CC(=O)Nc2cc([C@H]3C[C@@H](OC(=O)NC4(C)CC4)CO3)[nH]n2)on1 (single isomer, unassigned) [Example 101]	≤ 0.1
Cc1cc(CC(=O)Nc2cc([C@@H]3CC[C@H](N(C)C(=O)NC(C)C)C3)[nH]n2)on1 (single isomer, unassigned) [Example 103]	1 to 100
Cc1cc(CC(=O)Nc2cc([C@@H]3CC[C@H](Oc4nnccc4C(C)C)C3)[nH]n2)on1 (single isomer, unassigned) [Example 104]	≤ 0.1
Cc1cc(CC(=O)Nc2cc([C@H]3C[C@H](OC(=O)NC4(C)CC4)CO3)[nH]n2)on1 (single isomer, unassigned) [Example 108]	1 to 100
Cc1cc(CC(=O)Nc2cc([C@@H]3C[C@@H](OC(=O)NC4(C)CC4)CO3)[nH]n2)on1 (single isomer, unassigned) [Example 109]	1 to 100
COCc1nc2cc(Nc3cc([C@H]4CC[C@@H](OC(=O)NC(C)C)C4)[nH]n3)ncc2s1 (single isomer, unassigned) [Example 111]	0.25 to 1
COCc1nc2cc(Nc3cc([C@@H]4CC[C@H](OC(=O)NC(C)C)C4)[nH]n3)ncc2s1 (single isomer, unassigned) [Example 112]	0.1 to 0.25
CC(C)NC(=O)O[C@H]1CC[C@@H](c2cc(Nc3ccsn3)n[nH]2)C1 (single isomer, unassigned) [Example 113]	1 to 100
CC(C)NC(=O)O[C@@H]1CC[C@H](c2cc(Nc3ccsn3)n[nH]2)C1 (single isomer, unassigned) [Example 114]	1 to 100
Cc1cc(CC(=O)Nc2cc([C@@H]3CC[C@H](N4CC(C)(C)NC4=O)C3)[nH]n2)on1 (single isomer, unassigned) [Example 118]	0.1 to 0.25
Cc1cc(CC(=O)Nc2cc([C@@H]3CC[C@H](Oc4nnccc4C)C3)[nH]n2)on1 (single isomer, unassigned) [Example 120]	≤ 0.1
CC(C)NC(=O)O[C@@H]1CC[C@H](c2cc(Nc3nccc4ncsc34)n[nH]2)C1 (single isomer, unassigned) [Example 121]	≤ 0.1
CC(C)NC(=O)O[C@H]1CC[C@@H](c2cc(Nc3nccc4ncsc34)n[nH]2)C1 (single isomer, unassigned) [Example 122]	≤ 0.1

SMILES	IC50 [µM]
CC(C)NC(=O)N[C@@H]1CC[C@H](c2cc(Nc3ncccn3)n[nH]2)C1 (single isomer, unassigned) [Example 123]	1 to 100
CC(C)NC(=O)N[C@H]1CC[C@@H](c2cc(Nc3ncccn3)n[nH]2)C1 (single isomer, unassigned) [Example 124]	1 to 100
Cc1cc(CC(=O)Nc2cc([C@H]3CC[C@@H](Oc4nscc4C4CC4)C3)[nH]n2)on1 (single isomer, unassigned) [Example 127]	≤ 0.1
Cc1cc(CC(=O)Nc2cc([C@@H]3CC[C@H](Oc4nscc4C4CC4)C3)[nH]n2)on1 (single isomer, unassigned) [Example 128]	≤ 0.1
Cc1cc(CC(=O)Nc2cc([C@H]3CC[C@@H](NC(=O)CC(C)C)C3)[nH]n2)on1 (single isomer, unassigned) [Example 129]	1 to 100
Cc1cc(CC(=O)Nc2cc([C@@H]3CC[C@H](NC(=O)CC(C)C)C3)[nH]n2)on1 (single isomer, unassigned) [Example 130]	1 to 100
Cc1cc(CC(=O)Nc2cc([C@H]3CC[C@@H](NC(=O)c4ccccc4)C3)[nH]n2)on1 (single isomer, unassigned) [Example 131]	1 to 100
Cc1cc(CC(=O)Nc2cc([C@@H]3CC[C@H](NC(=O)c4ccccc4)C3)[nH]n2)on1 (single isomer, unassigned) [Example 132]	1 to 100
CCS(=O)(=O)N[C@@H]1CC[C@H](c2cc(NC(=O)Cc3cc(C)no3)n[nH]2)C1 (single isomer, unassigned) [Example 133]	1 to 100
CCS(=O)(=O)N[C@H]1CC[C@@H](c2cc(NC(=O)Cc3cc(C)no3)n[nH]2)C1 (single isomer, unassigned) [Example 134]	1 to 100
Cc1cc(CC(=O)Nc2cc([C@@H]3C[C@@H]3COC(=O)NC(C)C)[nH]n2)on1 (single isomer, unassigned) [Example 136]	1 to 100
Cc1cc(CC(=O)Nc2cc([C@H]3C[C@H]3COC(=O)NC(C)C)[nH]n2)on1 (single isomer, unassigned) [Example 137]	1 to 100
CC(C)NC(=O)O[C@@H]1CC[C@H](c2cc(Nc3nccn4nccc34)n[nH]2)C1 (single isomer, unassigned) [Example 138]	≤ 0.1
CC(C)NC(=O)O[C@H]1CC[C@@H](c2cc(Nc3nccn4nccc34)n[nH]2)C1 (single isomer, unassigned) [Example 139]	≤ 0.1
Cc1cc(CC(=O)Nc2cc([C@H]3CC[C@H](N(C)C(=O)NC(C)C)C3)[nH]n2)on1 (single isomer, unassigned) [Example 141]	1 to 100
Cc1cc(CC(=O)Nc2cc([C@@H]3CC[C@@H](N(C)C(=O)NC(C)C)C3)[nH]n2)on1 (single isomer, unassigned) [Example 142]	1 to 100
Cc1cc(CC(=O)Nc2cc([C@H]3CC[C@@H](NC(=O)OC(C)C)C3)[nH]n2)on1 (single isomer, unassigned) [Example 143]	1 to 100
Cc1cc(CC(=O)Nc2cc([C@@H]3CC[C@H](NC(=O)OC(C)C)C3)[nH]n2)on1 (single isomer, unassigned) [Example 144]	1 to 100
CNS(=O)(=O)N[C@@H]1CC[C@H](c2cc(NC(=O)Cc3cc(C)no3)n[nH]2)C1 (single isomer, unassigned) [Example 145]	1 to 100
CNS(=O)(=O)N[C@H]1CC[C@@H](c2cc(NC(=O)Cc3cc(C)no3)n[nH]2)C1 (single isomer, unassigned) [Example 146]	1 to 100
Cc1cc(CC(=O)Nc2cc([C@@H]3CC[C@H](N4CC5(CC5)NC4=O)C3)[nH]n2)on1 (single isomer, unassigned) [Example 338]	0.25 to 1
Cc1cc(CC(=O)Nc2cc([C@H]3CC[C@@H](Oc4cccnc4)C3)[nH]n2)on1 (single isomer, unassigned) [Example 339]	0.25 to 1
Cc1cc(CC(=O)Nc2cc([C@@H]3CC[C@H](Oc4cccnc4)C3)[nH]n2)on1 (single isomer, unassigned) [Example 340]	1 to 100
Cc1cc(CC(=O)Nc2cc([C@H]3CC[C@@H](CC(=O)O)C3)[nH]n2)on1 (single isomer, unassigned) [Example 341]	1 to 100
Cc1cc(CC(=O)Nc2cc([C@@H]3CC[C@H](CC(=O)O)C3)[nH]n2)on1 (single isomer, unassigned) [Example 342]	1 to 100
Cc1cc(CC(=O)Nc2cc([C@H]3CC[C@H](CC(=O)O)C3)[nH]n2)on1 (single isomer, unassigned) [Example 343]	1 to 100
Cc1cc(CC(=O)Nc2cc([C@@H]3CC[C@@H](CC(=O)O)C3)[nH]n2)on1 (single isomer, unassigned) [Example 344]	1 to 100

Reference: patent US20240190855A1 (Relay Therapeutics, Inc., priority 2021, published 2024)
